From the NIST ThermoML archive (doi:10.1021/je700260f)
Numbers after ± are expanded uncertainties.

Details: Liquid, Vibrating tube method

FC(C(F)(F)F)C(F)(F)F [1,1,1,2,3,3,3-heptafluoropropane]
Details	mass density [kg/m3]
313.15 K, 33848 kPa	1503.2 ± 1.7
313.15 K, 33888 kPa	1503.3 ± 1.7
313.15 K, 33928 kPa	1503.5 ± 1.7
313.15 K, 33981 kPa	1503.8 ± 1.7
313.15 K, 34027 kPa	1503.8 ± 1.7
313.15 K, 34060 kPa	1503.9 ± 1.7
313.15 K, 34100 kPa	1504 ± 1.7
313.15 K, 34136 kPa	1504.1 ± 1.7
313.15 K, 34171 kPa	1504.4 ± 1.7
313.15 K, 34201 kPa	1504.5 ± 1.7
313.15 K, 34232 kPa	1504.6 ± 1.7
313.15 K, 34269 kPa	1504.6 ± 1.7
313.15 K, 34305 kPa	1504.8 ± 1.7
313.15 K, 34336 kPa	1504.7 ± 1.7
313.15 K, 34374 kPa	1505 ± 1.7
313.15 K, 34408 kPa	1505.1 ± 1.7
313.15 K, 34430 kPa	1505.2 ± 1.7
313.15 K, 34451 kPa	1505.2 ± 1.7
313.15 K, 34461 kPa	1505.2 ± 1.7
313.15 K, 34473 kPa	1505.2 ± 1.7
313.15 K, 34482 kPa	1505.4 ± 1.7
313.15 K, 34489 kPa	1505.4 ± 1.7
313.16 K, 1420 kPa	1328.8 ± 1.5
313.16 K, 1448 kPa	1329.3 ± 1.5
313.16 K, 9648 kPa	1395.4 ± 1.5
313.16 K, 9676 kPa	1395.6 ± 1.5
313.16 K, 9701 kPa	1395.7 ± 1.5
313.16 K, 9733 kPa	1395.9 ± 1.5
313.16 K, 9768 kPa	1396.1 ± 1.5
313.16 K, 9796 kPa	1396.4 ± 1.5
313.16 K, 10034 kPa	1397.9 ± 1.5
313.16 K, 11599 kPa	1407.5 ± 1.5
313.16 K, 11650 kPa	1407.8 ± 1.5
313.16 K, 16202 kPa	1432.4 ± 1.6
313.16 K, 16267 kPa	1432.9 ± 1.6
313.16 K, 16535 kPa	1434.1 ± 1.6
313.16 K, 16676 kPa	1434.8 ± 1.6
313.16 K, 16775 kPa	1435.3 ± 1.6
313.16 K, 21124 kPa	1455.4 ± 1.6
313.16 K, 21173 kPa	1455.5 ± 1.6
313.16 K, 23260 kPa	1464.4 ± 1.6
313.16 K, 23309 kPa	1464.6 ± 1.6
313.16 K, 23346 kPa	1464.7 ± 1.6
313.16 K, 25084 kPa	1471.9 ± 1.6
313.16 K, 25125 kPa	1471.9 ± 1.6
313.16 K, 25173 kPa	1472.1 ± 1.6
323.13 K, 960 kPa	1272.4 ± 1.5
323.13 K, 990 kPa	1272.7 ± 1.5
323.13 K, 1310 kPa	1277.3 ± 1.5
323.13 K, 1540 kPa	1280.5 ± 1.5
323.13 K, 1600 kPa	1281.2 ± 1.5
323.13 K, 1800 kPa	1283.9 ± 1.5
323.13 K, 1820 kPa	1284.2 ± 1.5
323.13 K, 1840 kPa	1284.5 ± 1.5
323.13 K, 2040 kPa	1287.1 ± 1.5
323.13 K, 2060 kPa	1287.3 ± 1.5
323.13 K, 2080 kPa	1287.6 ± 1.5
323.13 K, 2100 kPa	1287.9 ± 1.5
323.13 K, 2120 kPa	1288.2 ± 1.5
323.13 K, 2140 kPa	1288.3 ± 1.5
323.13 K, 2160 kPa	1288.7 ± 1.5
323.13 K, 2180 kPa	1288.9 ± 1.5
323.13 K, 2190 kPa	1289.2 ± 1.5
323.13 K, 2220 kPa	1289.2 ± 1.5
323.13 K, 2230 kPa	1289.4 ± 1.5
323.13 K, 2250 kPa	1289.8 ± 1.5
323.13 K, 2270 kPa	1290 ± 1.5
323.13 K, 3000 kPa	1298.9 ± 1.5
323.13 K, 3030 kPa	1299.3 ± 1.5
323.13 K, 3090 kPa	1299.8 ± 1.5
323.13 K, 3110 kPa	1300.2 ± 1.5
323.13 K, 3130 kPa	1300.3 ± 1.5
323.13 K, 3150 kPa	1300.6 ± 1.5
323.13 K, 3180 kPa	1300.8 ± 1.5
323.13 K, 3200 kPa	1301.3 ± 1.5
323.13 K, 3230 kPa	1301.4 ± 1.5
323.13 K, 3250 kPa	1301.7 ± 1.5
323.13 K, 3270 kPa	1301.9 ± 1.5
323.13 K, 3290 kPa	1302.2 ± 1.5
323.13 K, 4770 kPa	1317.9 ± 1.5
323.13 K, 4790 kPa	1318.1 ± 1.5
323.13 K, 4820 kPa	1318.3 ± 1.5
323.13 K, 4850 kPa	1318.7 ± 1.5
323.13 K, 4880 kPa	1318.9 ± 1.5
323.13 K, 4900 kPa	1319.2 ± 1.5
323.13 K, 4920 kPa	1319.4 ± 1.5
323.13 K, 6440 kPa	1333.7 ± 1.5
323.13 K, 6489 kPa	1334.1 ± 1.5
323.13 K, 6508 kPa	1334 ± 1.5
323.13 K, 6533 kPa	1334.5 ± 1.5
323.13 K, 6605 kPa	1335.1 ± 1.5
323.13 K, 6623 kPa	1335.3 ± 1.5
323.13 K, 6650 kPa	1335.4 ± 1.5
323.13 K, 6668 kPa	1335.7 ± 1.5
323.13 K, 6696 kPa	1335.8 ± 1.5
323.13 K, 6716 kPa	1336 ± 1.5
323.13 K, 6734 kPa	1336.3 ± 1.5
323.13 K, 6759 kPa	1336.4 ± 1.5
323.13 K, 7026 kPa	1338.8 ± 1.5
323.14 K, 920 kPa	1271.8 ± 1.5
323.14 K, 940 kPa	1272.1 ± 1.5
323.14 K, 1020 kPa	1273.1 ± 1.5
323.14 K, 1040 kPa	1273.4 ± 1.5
323.14 K, 1060 kPa	1273.7 ± 1.5
323.14 K, 1070 kPa	1274.1 ± 1.5
323.14 K, 1090 kPa	1274.2 ± 1.5
323.14 K, 1110 kPa	1274.5 ± 1.5
323.14 K, 1130 kPa	1274.7 ± 1.5
323.14 K, 1140 kPa	1275.1 ± 1.5
323.14 K, 1170 kPa	1275.4 ± 1.5
323.14 K, 1180 kPa	1275.5 ± 1.5
323.14 K, 1200 kPa	1275.9 ± 1.5
323.14 K, 1220 kPa	1276 ± 1.5
323.14 K, 1240 kPa	1276.4 ± 1.5
323.14 K, 1260 kPa	1276.7 ± 1.5
323.14 K, 1290 kPa	1276.9 ± 1.5
323.14 K, 1330 kPa	1277.6 ± 1.5
323.14 K, 1350 kPa	1277.8 ± 1.5
323.14 K, 1370 kPa	1278.2 ± 1.5
323.14 K, 1390 kPa	1278.3 ± 1.5
323.14 K, 1410 kPa	1278.7 ± 1.5
323.14 K, 1420 kPa	1278.8 ± 1.5
323.14 K, 1450 kPa	1279.2 ± 1.5
323.14 K, 1470 kPa	1279.6 ± 1.5
323.14 K, 1500 kPa	1279.9 ± 1.5
323.14 K, 1520 kPa	1280.1 ± 1.5
323.14 K, 1550 kPa	1280.6 ± 1.5
323.14 K, 1580 kPa	1281.1 ± 1.5
323.14 K, 1610 kPa	1281.4 ± 1.5
323.14 K, 1630 kPa	1281.6 ± 1.5
323.14 K, 1640 kPa	1282 ± 1.5
323.14 K, 1670 kPa	1282.1 ± 1.5
323.14 K, 1690 kPa	1282.5 ± 1.5
323.14 K, 1710 kPa	1282.7 ± 1.5
323.14 K, 1730 kPa	1283.1 ± 1.5
323.14 K, 1750 kPa	1283.3 ± 1.5
323.14 K, 1780 kPa	1283.7 ± 1.5
323.14 K, 1860 kPa	1284.7 ± 1.5
323.14 K, 1880 kPa	1285 ± 1.5
323.14 K, 1900 kPa	1285.3 ± 1.5
323.14 K, 1920 kPa	1285.4 ± 1.5
323.14 K, 1940 kPa	1285.8 ± 1.5
323.14 K, 1960 kPa	1285.9 ± 1.5
323.14 K, 1980 kPa	1286.3 ± 1.5
323.14 K, 2000 kPa	1286.6 ± 1.5
323.14 K, 2020 kPa	1286.8 ± 1.5
323.14 K, 2290 kPa	1290.2 ± 1.5
323.14 K, 2310 kPa	1290.6 ± 1.5
323.14 K, 2330 kPa	1290.7 ± 1.5
323.14 K, 2350 kPa	1291 ± 1.5
323.14 K, 2380 kPa	1291.3 ± 1.5
323.14 K, 2390 kPa	1291.5 ± 1.5
323.14 K, 2410 kPa	1291.7 ± 1.5
323.14 K, 2430 kPa	1291.9 ± 1.5
323.14 K, 2450 kPa	1292.3 ± 1.5
323.14 K, 2480 kPa	1292.4 ± 1.5
323.14 K, 2500 kPa	1292.9 ± 1.5
323.14 K, 2530 kPa	1293.2 ± 1.5
323.14 K, 2560 kPa	1293.6 ± 1.5
323.14 K, 2570 kPa	1293.8 ± 1.5
323.14 K, 2600 kPa	1294 ± 1.5
323.14 K, 2610 kPa	1294.3 ± 1.5
323.14 K, 2630 kPa	1294.4 ± 1.5
323.14 K, 2650 kPa	1294.8 ± 1.5
323.14 K, 2670 kPa	1295 ± 1.5
323.14 K, 2830 kPa	1296.9 ± 1.5
323.14 K, 2890 kPa	1297.6 ± 1.5
323.14 K, 2920 kPa	1297.7 ± 1.5
323.14 K, 2940 kPa	1298.3 ± 1.5
323.14 K, 2960 kPa	1298.4 ± 1.5
323.14 K, 2980 kPa	1298.6 ± 1.5
323.14 K, 3060 kPa	1299.4 ± 1.5
323.14 K, 3310 kPa	1302.4 ± 1.5
323.14 K, 3340 kPa	1302.7 ± 1.5
323.14 K, 3360 kPa	1303 ± 1.5
323.14 K, 3380 kPa	1303.3 ± 1.5
323.14 K, 3410 kPa	1303.5 ± 1.5
323.14 K, 3440 kPa	1303.9 ± 1.5
323.14 K, 3470 kPa	1304.1 ± 1.5
323.14 K, 3480 kPa	1304.3 ± 1.5
323.14 K, 3510 kPa	1304.5 ± 1.5
323.14 K, 3530 kPa	1304.8 ± 1.5
323.14 K, 3550 kPa	1305 ± 1.5
323.14 K, 3570 kPa	1305.4 ± 1.5
323.14 K, 3600 kPa	1305.5 ± 1.5
323.14 K, 3640 kPa	1306.1 ± 1.5
323.14 K, 3660 kPa	1306.3 ± 1.5
323.14 K, 3680 kPa	1306.5 ± 1.5
323.14 K, 3700 kPa	1306.7 ± 1.5
323.14 K, 3720 kPa	1307 ± 1.5
323.14 K, 3750 kPa	1307.2 ± 1.5
323.14 K, 3770 kPa	1307.5 ± 1.5
323.14 K, 3790 kPa	1307.7 ± 1.5
323.14 K, 3810 kPa	1308 ± 1.5
323.14 K, 3840 kPa	1308.2 ± 1.5
323.14 K, 3860 kPa	1308.5 ± 1.5
323.14 K, 3880 kPa	1308.7 ± 1.5
323.14 K, 3900 kPa	1309 ± 1.5
323.14 K, 3920 kPa	1309.1 ± 1.5
323.14 K, 3950 kPa	1309.4 ± 1.5
323.14 K, 3970 kPa	1309.8 ± 1.5
323.14 K, 4000 kPa	1309.9 ± 1.5
323.14 K, 4020 kPa	1310.2 ± 1.5
323.14 K, 4040 kPa	1310.3 ± 1.5
323.14 K, 4070 kPa	1310.7 ± 1.5
